Five molecules from BindingDB's records for doi:10.1128/aac.38.12.2827 (Merck Research Laboratories, 1995) can be followed below.

A word on the IC50: it is the midpoint of a concentration-inhibition curve. Higher therefore signals weaker potency in that assay.

The assay has as its target Polymerase acidic protein (Influenza A virus (strain A/Puerto Rico/8/1934 H1N1), UniProt P03433). The assay can be described thus: Inhibition of cap 1 ALMV primed Influenza transcriptase.

Where only a bound is given, the exact number is not on record here.

For `NC(=O)C(=O)CC(=O)C1CCCCC1`, the IC50 is greater than 500 µM. The figure for `O=C(O)C(=O)CS(=O)(=O)c1ccccc1` is greater than 500 µM; for `O=C(O)C(=O)Cc1cc2ccccc2o1` it is greater than 500 µM. In the case of `Cn1c(CC(=O)C(=O)O)nc2ccccc21` it was greater than 500 µM; in that of `O=C(O)C(=O)Cc1nc2ccccc2s1`, greater than 500 µM.
